# Laboratory results reported in patent US20100160356A1, “NOVEL CYCLOBUTYL COMPOUNDS AS KINASE INHIBITORS” (priority 2006, published 2010).
# Structures can show the parent of a compound that is named as a salt.
# Columns and labels:
# VEGF-2 = VEGF-2 (Homo sapiens, UniProt P35968); assay: Inhibition of VEGF-2 (flashplate assay); type: biochemical; settings: flashplate method
# Experimental: (§1) The test plates used are 384-well flashplate microtitre plates from Perkin Elmer (USA). The components of the kinase reaction are pipetted into the assay plate. The VEGF-2 kinase is incubated for 3 hr. with radioactively labelled ^33P-ATP in the presence and absence of test substances in a total volume of 100 μl at room temperature together with biotinylated poly(Glu, Tyr)4:1. The reaction is terminated using 25 μl of a 200 mM EDTA solution. After incubation for a further 30 min at room temperature, the supernatants are removed by suction, and the wells are washed three times with 100 μl of 0.9% NaCl solution each time. The radioactivity is measured using a Topcount scintillation counter (PerkinElmer, USA). IC50 values are calculated using the RS1 computer program.
# PDGFRβ = PDGFRβ (Homo sapiens, UniProt P09619); assay: Inhibition of PDGFRβ (flashplate assay); type: biochemical; settings: flashplate method
# Experimental: as §1, with “are 96-well” for “are 384-well”, “The PDGFRβ” for “The VEGF-2”, “temperature (here autophosphorylation of the kinase).” for “temperature together with biotinylated poly(Glu, Tyr)4:1.”, “using 150” for “using 25”, “a 60” for “a 200”, “with 200” for “with 100”
# [1] = target: T1, FAK (focal adhesion kinase) (Homo sapiens, UniProt Q05397); assay: Inhibition of FAK (ELISA assay), FAK phosphorylation in cells; type: cell-based; settings: human cells with FAK amplification
# T1 construct: endogenous in cells; host or cells: Calu-6 or HT-29
# Experimental: Activated FAK promotes the invasive growth of tumour cells and inhibits anoikis.
# The amount of phosphorylated FAK is determined by a specific capture ELISA or an analogous LUMINEX assay. FAK from cell lysates is bound to a 96-well ELISA plate or LUMINEX beads by means of a specific antibody (“capturing”), and the tyrosine phosphorylation is detected using a biotin-labelled anti-phosphotyrosine antibody and a streptavidin-peroxidase conjugate by a chemiluminescence method or by means of a fluorescence-labelled anti-phosphotyrosine antibody.
# For determination of the activity of kinase inhibitors, cells are pretreated with increasing concentrations of these compounds for 45 min, and the FAK phosphorylation is then determined. As internal control, a concentration series of a reference inhibitor is measured.
# TGFβR1 = target: T2, TGFβR1 (Homo sapiens, UniProt P36897); assay: Inhibition of TGFβR1 (flashplate assay); type: biochemical; settings: flashplate method
# T2 sequence (P36897 34-503): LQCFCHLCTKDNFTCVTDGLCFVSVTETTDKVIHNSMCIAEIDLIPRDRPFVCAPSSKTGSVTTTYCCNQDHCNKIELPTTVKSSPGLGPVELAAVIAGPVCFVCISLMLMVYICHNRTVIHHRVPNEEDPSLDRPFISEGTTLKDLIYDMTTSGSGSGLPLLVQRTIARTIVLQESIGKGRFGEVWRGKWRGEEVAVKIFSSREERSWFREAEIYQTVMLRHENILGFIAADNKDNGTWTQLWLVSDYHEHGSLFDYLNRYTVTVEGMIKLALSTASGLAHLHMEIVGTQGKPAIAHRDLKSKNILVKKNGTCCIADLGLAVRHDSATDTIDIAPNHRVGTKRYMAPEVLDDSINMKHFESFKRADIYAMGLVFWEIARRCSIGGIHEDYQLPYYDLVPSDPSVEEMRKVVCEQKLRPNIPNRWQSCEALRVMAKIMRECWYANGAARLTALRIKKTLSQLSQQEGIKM
# Experimental: The test is carried out as described in Example B1b for IGF1R. A biotinylated is added to the TGFβR1 kinase.
# The kinase assay is carried out as a 384-well flashplate assay.
# The components of the kinase reaction are pipetted into the assay plate. The TGFβR1 kinase is incubated for 45 min with radioactively labelled ^33P-ATP in the presence and absence of test substances together with biotinylated substrate in a total volume of 35 μl. The reaction is terminated using 25 μl of 200 mM EDTA solution, removed by suction after 30 min at room temperature, and the wells are washed with three times with 100 μl of 0.9% NaCl solution each time. The radioactivity is measured using a Topcount scintillation counter (PerkinElmer, USA). IC50 values are calculated using the RS1 computer program.
# IGF1 receptor (IGF1R) = target: T3, IGF1 receptor (IGF1R) (Homo sapiens, UniProt P08069); assay: Inhibition of IGF1R (ELISA assay), IGF1-stimulated autophosphorylation in cells; type: cell-based; settings: human tumour cells stimulated with IGF1, read-out: IC50 IGF (ELISA)
# T3 construct: endogenous in cells; host or cells: MCF-7 or Calu-6
# Experimental: The stimulation induces an autophosphorylation of tyrosine residues in the cytoplasmatic IGF1R domain, which triggers signal transduction cascades, which result in inhibition of apoptosis and proliferation of the cells.
# The amount of phosphorylated IGF1R is determined by a receptor-specific capture ELISA or an analogous LUMINEX assay. The IGF1R from cell lysates is bound to a 96-well ELISA plate or LUMINEX beads by means of a specific antibody (“capturing”), and the tyrosine phosphorylation is detected using a biotin-labelled anti-phosphotyrosine antibody and a streptavidin-peroxidase conjugate by a chemiluminescence method or by means of a fluorescence-labelled anti-phosphotyrosine antibody.
# For determination of the activity of kinase inhibitors, cells are pretreated with increasing concentrations of these compounds for 45 min and subsequently stimulated using IGF1 for 5 min. As internal control, the biological activity of the ligand IGF1 is checked, and a concentration series of an IGF1R reference inhibitor is measured.
# TIE2 = TIE2 (Homo sapiens, UniProt Q02763); assay: Inhibition of TIE2 (flashplate assay); type: biochemical; settings: flashplate method
# Experimental: B4: inhibition of T1E2 (Flashplate Assay)
# as §1, with “TIE2” for “VEGF-2”
# IGF1R = IGF1R (Homo sapiens, UniProt P08069); assay: Inhibition of IGF1R (flashplate assay); type: biochemical; settings: flashplate method
# Experimental: as §1, with “are 96-well” for “are 384-well”, “The IGF1R” for “The VEGF-2”, “for 1” for “for 3”
# Chain of VEGF-2 (P35968 20-1356): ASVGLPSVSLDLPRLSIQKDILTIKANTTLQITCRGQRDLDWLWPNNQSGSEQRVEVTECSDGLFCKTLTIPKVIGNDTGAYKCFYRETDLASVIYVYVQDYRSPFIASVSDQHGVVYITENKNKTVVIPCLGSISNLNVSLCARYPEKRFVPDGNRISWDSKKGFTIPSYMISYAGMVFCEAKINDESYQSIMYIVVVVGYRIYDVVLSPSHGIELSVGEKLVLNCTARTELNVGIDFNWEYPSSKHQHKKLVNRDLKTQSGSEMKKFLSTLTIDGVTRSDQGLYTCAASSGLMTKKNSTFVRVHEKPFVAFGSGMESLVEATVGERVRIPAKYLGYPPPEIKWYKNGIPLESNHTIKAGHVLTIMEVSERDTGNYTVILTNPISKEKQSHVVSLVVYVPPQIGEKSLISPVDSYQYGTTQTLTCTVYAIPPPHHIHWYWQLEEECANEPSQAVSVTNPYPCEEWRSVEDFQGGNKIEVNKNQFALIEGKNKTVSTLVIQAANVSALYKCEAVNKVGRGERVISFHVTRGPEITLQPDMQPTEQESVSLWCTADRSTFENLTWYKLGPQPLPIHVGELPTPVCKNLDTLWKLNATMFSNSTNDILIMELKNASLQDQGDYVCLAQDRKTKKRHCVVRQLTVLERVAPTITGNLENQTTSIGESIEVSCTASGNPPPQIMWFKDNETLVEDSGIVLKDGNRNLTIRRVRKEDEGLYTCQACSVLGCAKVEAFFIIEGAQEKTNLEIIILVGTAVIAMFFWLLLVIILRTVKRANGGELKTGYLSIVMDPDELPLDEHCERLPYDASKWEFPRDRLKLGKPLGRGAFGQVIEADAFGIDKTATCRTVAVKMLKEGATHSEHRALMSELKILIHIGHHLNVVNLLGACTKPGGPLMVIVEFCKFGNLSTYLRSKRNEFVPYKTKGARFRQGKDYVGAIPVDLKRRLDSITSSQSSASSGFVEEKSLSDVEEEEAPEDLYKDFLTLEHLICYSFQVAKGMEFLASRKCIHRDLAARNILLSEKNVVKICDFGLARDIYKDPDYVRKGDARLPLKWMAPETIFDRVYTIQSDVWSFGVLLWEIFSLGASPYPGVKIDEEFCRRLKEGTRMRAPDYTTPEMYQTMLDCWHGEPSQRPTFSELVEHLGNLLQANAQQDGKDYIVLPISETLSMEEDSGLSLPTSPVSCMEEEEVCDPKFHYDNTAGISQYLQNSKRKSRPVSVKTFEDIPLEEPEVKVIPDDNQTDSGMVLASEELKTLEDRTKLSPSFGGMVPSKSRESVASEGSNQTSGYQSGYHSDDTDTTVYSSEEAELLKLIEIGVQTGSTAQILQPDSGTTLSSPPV
# T3 sequence (P08069 31-1367): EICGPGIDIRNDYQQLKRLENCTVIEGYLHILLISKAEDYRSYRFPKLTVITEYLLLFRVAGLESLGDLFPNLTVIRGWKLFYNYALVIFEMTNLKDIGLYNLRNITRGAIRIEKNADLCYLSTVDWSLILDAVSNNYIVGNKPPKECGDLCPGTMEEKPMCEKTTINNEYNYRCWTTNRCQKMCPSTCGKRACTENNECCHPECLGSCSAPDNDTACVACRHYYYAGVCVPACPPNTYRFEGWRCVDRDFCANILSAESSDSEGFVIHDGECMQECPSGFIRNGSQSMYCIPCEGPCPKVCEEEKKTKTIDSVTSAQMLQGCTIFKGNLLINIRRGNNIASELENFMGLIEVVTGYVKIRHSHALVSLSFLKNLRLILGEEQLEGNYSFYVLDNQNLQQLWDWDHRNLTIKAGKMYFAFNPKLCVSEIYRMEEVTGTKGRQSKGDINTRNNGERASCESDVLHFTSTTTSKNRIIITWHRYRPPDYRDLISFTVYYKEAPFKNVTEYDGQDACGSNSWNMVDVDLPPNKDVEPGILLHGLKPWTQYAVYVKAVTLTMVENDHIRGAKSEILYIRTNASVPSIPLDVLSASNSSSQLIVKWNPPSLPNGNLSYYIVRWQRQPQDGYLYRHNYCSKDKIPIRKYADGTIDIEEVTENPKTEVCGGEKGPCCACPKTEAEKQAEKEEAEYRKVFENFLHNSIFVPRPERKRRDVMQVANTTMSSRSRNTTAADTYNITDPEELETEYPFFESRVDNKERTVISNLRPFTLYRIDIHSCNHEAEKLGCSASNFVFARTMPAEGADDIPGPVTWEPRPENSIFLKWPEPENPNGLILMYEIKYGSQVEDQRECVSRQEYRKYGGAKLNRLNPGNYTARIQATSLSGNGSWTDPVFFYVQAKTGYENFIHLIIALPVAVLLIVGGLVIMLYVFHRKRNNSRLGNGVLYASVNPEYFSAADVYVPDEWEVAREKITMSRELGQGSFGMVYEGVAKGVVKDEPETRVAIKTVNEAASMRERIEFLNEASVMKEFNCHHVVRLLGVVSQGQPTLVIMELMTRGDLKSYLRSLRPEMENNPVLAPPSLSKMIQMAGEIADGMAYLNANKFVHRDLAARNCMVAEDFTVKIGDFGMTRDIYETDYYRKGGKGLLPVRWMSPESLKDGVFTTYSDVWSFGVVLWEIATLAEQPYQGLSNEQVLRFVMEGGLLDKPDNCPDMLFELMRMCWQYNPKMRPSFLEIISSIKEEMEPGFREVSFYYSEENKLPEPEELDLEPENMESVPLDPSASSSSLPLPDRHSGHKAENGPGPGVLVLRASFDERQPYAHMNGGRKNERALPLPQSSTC
# Chain of TIE2 (Q02763 23-1124, species assumed): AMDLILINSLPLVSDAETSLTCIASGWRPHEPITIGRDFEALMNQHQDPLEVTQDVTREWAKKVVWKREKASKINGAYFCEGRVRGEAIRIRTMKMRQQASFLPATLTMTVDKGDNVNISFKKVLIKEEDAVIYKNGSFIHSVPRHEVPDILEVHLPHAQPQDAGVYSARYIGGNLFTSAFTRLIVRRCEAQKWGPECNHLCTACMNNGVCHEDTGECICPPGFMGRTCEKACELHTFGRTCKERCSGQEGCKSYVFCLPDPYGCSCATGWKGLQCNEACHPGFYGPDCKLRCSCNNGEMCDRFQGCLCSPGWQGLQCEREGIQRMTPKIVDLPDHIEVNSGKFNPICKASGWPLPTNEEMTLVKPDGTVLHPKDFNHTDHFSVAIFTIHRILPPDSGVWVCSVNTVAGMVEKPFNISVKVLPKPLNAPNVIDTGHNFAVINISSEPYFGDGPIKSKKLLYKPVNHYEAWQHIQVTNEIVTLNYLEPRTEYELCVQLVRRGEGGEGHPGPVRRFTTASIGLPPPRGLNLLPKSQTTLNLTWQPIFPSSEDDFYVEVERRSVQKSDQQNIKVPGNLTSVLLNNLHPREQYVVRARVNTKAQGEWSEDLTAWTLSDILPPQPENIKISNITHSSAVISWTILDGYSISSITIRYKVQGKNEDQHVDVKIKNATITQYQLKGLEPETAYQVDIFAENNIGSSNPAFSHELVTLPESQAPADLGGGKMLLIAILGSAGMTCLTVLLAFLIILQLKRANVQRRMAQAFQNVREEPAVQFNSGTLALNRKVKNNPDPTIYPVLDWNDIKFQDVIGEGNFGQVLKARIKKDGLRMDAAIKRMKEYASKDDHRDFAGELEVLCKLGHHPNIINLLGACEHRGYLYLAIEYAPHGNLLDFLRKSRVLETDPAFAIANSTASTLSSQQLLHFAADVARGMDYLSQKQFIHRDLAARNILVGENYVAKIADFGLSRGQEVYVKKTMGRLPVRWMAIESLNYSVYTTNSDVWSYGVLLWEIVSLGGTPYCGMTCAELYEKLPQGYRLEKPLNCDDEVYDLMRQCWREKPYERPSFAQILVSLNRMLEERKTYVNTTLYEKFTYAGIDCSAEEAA
# T1 sequence (Q05397 whole entry): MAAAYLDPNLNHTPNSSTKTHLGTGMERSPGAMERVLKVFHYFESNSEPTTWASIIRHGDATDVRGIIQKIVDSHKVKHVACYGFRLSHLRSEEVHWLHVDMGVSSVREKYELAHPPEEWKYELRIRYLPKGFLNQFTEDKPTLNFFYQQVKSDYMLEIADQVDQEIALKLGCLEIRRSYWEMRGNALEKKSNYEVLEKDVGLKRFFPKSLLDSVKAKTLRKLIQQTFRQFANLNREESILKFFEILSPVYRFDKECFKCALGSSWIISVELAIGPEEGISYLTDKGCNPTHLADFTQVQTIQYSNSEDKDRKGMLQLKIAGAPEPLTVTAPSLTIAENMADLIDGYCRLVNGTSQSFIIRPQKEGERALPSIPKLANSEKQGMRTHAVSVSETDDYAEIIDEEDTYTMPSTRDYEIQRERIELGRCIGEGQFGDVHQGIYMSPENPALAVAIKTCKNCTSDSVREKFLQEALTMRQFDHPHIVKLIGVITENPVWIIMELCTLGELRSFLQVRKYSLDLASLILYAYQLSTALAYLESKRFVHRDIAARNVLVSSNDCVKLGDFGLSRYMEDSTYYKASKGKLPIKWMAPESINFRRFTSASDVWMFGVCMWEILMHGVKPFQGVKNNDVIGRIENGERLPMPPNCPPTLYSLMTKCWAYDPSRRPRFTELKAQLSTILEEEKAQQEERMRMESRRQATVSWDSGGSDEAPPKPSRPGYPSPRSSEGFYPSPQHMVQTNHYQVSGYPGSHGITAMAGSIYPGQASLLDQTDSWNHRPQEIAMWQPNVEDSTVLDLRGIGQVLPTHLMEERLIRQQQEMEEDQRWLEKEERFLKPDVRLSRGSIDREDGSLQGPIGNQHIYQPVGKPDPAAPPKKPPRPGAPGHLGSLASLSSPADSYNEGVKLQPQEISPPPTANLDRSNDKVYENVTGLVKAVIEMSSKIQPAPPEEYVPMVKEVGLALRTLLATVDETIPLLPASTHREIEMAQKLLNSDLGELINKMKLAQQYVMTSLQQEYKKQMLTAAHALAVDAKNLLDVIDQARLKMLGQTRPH
# Chain of IGF1R (P08069 31-1367, species assumed): as the sequence (P08069 31-1367) above
Structure (SMILES),melting point,IC50 [1] [nM],IC50 (TGFβR1) [nM],IC50 (IGF1 receptor (IGF1R)) [nM],also measured
NCC1CC(n2cc(I)c3c(N)ncnc32)C1 (stereo not shown) (as salt: HCl) [Compound 52],241 to 242.5 °C,,,,
C[Si](C)(COc1cccc(-c2cn(C3CC(CN)C3)c3ncnc(N)c23)c1)c1ccccc1 (stereo not shown) (as salt: TFA) [Compound 8],172 to 174.5 °C,,,,
C[Si](C)(C)COc1cccc(-c2cn(C3CC(CN)C3)c3ncnc(N)c23)c1 (stereo not shown) (as salt: TFA) [Compound 9],83 to 84 °C,,,,
NCC1CC(n2cc(-c3cc4ccccc4o3)c3c(N)ncnc32)C1 (stereo not shown) (as salt: TFA) [Compound 37],202.5 to 204.5 °C,,,,
NCC1CC(n2cc(-c3ccco3)c3c(N)ncnc32)C1 (stereo not shown) (as salt: TFA) [Compound 38],207.5 to 209 °C,,,,
NCC1CC(n2cc(-c3cccs3)c3c(N)ncnc32)C1 (stereo not shown) (as salt: TFA) [Compound 41],206 to 207.5 °C,,,,
NCC1CC(n2cc(-c3ccncc3)c3c(N)ncnc32)C1 (stereo not shown) (as salt: TFA) [Compound 43],> 195 °C (dec.),,,,
N#Cc1cccc(-c2cn(C3CC(CN)C3)c3ncnc(N)c23)c1 (stereo not shown) (as salt: TFA) [Compound 57],186.5 to 189 °C,,,,
CS(=O)(=O)Nc1cccc(-c2cn(C3CC(CN)C3)c3ncnc(N)c23)c1 (stereo not shown) [Compound 13],82 to 84 °C,28000,,,IC50 (VEGF-2): 6500 nM; IC50 (PDGFRβ): 5800 nM
CC(C)c1cccc(-c2cn(C3CC(CN)C3)c3ncnc(N)c23)c1 (stereo not shown) [Compound 16],93 to 94.5 °C,28500,1500,22000,
NCC1CC(n2cc(-c3cccc(C(F)(F)F)c3)c3c(N)ncnc32)C1 (stereo not shown) [Compound 17],,25000,2700,,
NCC1CC(n2cc(-c3cccc(OC(F)(F)F)c3)c3c(N)ncnc32)C1 (stereo not shown) [Compound 18],88 to 90 °C,17500,1000,22000,
NCC1CC(n2cc(-c3cccc([N+](=O)[O-])c3)c3c(N)ncnc32)C1 (stereo not shown) [Compound 20],53 to 55 °C,4000,700,,
CC(=O)Nc1cccc(-c2cn(C3CC(CN)C3)c3ncnc(N)c23)c1 (stereo not shown) [Compound 21],,17000,6500,,
CN(Cc1ccccc1)c1cccc(-c2cn(C3CC(CN)C3)c3ncnc(N)c23)c1 (stereo not shown) [Compound 26],197 to 200 °C,,1100,11000,IC50 (VEGF-2): 2700 nM
NCC1CC(n2cc(-c3ccc4c(c3)n(Cc3ccccc3)c(=O)n4Cc3ccccc3)c3c(N)ncnc32)C1 (stereo not shown) [Compound 33],72.5 to 74 °C,27000,,20000,IC50 (PDGFRβ): 6850 nM; IC50 (TIE2): 370 nM
NCC1CC(n2cc(-c3ccncc3)c3c(N)ncnc32)C1 (stereo not shown) [Compound 43],,,150,27000,
NCC1CC(n2cc(-c3cccnc3)c3c(N)ncnc32)C1 (stereo not shown) [Compound 44],,,950,13000,
NCC1CC(n2cc(-c3ccc4c(c3)OCCO4)c3c(N)ncnc32)C1 (stereo not shown) [Compound 53],324 to 325.5 °C,1900,1600,5300,IC50 (VEGF-2): 1400 nM; IC50 (PDGFRβ): 1100 nM; IC50 (TIE2): 2000 nM
Nc1ncnc2c1c(-c1ccc3c(c1)OCCO3)cn2C1CC(CN2CCCC2)C1 (stereo not shown) [Compound 54],,28000,,,
NCC1CC(n2cc(-c3ccc4ccn(Cc5ccccc5)c4c3)c3c(N)ncnc32)C1 (stereo not shown) [Compound 55],,24000,,3500,IC50 (VEGF-2): 190 nM; IC50 (TIE2): 680 nM; IC50 (IGF1R): 1600 nM
N#Cc1cccc(-c2cn(C3CC(CN)C3)c3ncnc(N)c23)c1 (stereo not shown) [Compound 57],,25000,6100,,
N#Cc1ccc(-c2cn(C3CC(CN)C3)c3ncnc(N)c23)cc1N (stereo not shown) [Compound 58],,,1100,,IC50 (VEGF-2): 610 nM; IC50 (PDGFRβ): 430 nM
N#Cc1ccc(-c2cn(C3CC(CN)C3)c3ncnc(N)c23)cc1F (stereo not shown) [Compound 59],,4100,8300,,IC50 (PDGFRβ): 620 nM
NCC1CC(n2cc(-c3cccc(C(N)=O)c3)c3c(N)ncnc32)C1 (stereo not shown) [Compound 60],,,530,,
NCC1CC(n2cc(-c3cccc(N(CCCCO)Cc4ccccc4)c3)c3c(N)ncnc32)C1 (stereo not shown) [Compound 61],,,,,IC50 (TIE2): 3900 nM
NCC1CC(n2cc(-c3ccc4occc4c3)c3c(N)ncnc32)C1 (stereo not shown) [Compound 63],156 to 159 °C,630,55,,IC50 (VEGF-2): 290 nM; IC50 (PDGFRβ): 310 nM; IC50 (TIE2): 1800 nM
NCC1CC(n2cc(-c3cccc4occc34)c3c(N)ncnc32)C1 (stereo not shown) [Compound 65],,420,45,,IC50 (VEGF-2): 1320 nM; IC50 (PDGFRβ): 940 nM; IC50 (TIE2): 2900 nM
NCC1CC(n2cc(-c3cnc4ccccc4c3)c3c(N)ncnc32)C1 (stereo not shown) [Compound 69],,8000,39,25000,
NCC1CC(n2cc(C(Cl)=CCOCc3ccccc3)c3c(N)ncnc32)C1 (stereo not shown) [Compound 71],,,5500,21000,
